Test results from patent publication EP2465840A1, “Terpene ether” (CABB GmbH, priority 2010, dated 2012).

How the values were obtained:
[1] = Foam height of terpene ether at t=0; type: physicochemical
From the text: (§1) Die Eigenschaften von mehreren erfindungsgemäßen Terpenethern werden in Tabelle 19 zusammengefasst und mit denen anderen Terpenethern verglichen. Tabelle 19

[2] = Dynamic surface tension; type: physicochemical
From the text: as §1

Row | Compound | Schaumhöhe t=0 [1] [mm] | Dynamische Oberflächenspannung Blasenfrequenz 1 Hz [2] [mN/m] | Dynamische Oberflächenspannung Blasenfrequenz 3 Hz [2] [mN/m]
1 | CC(=O)OCC(COC1CC2CCC1(C)C2(C)C)OC(C)=O (stereo not drawn) [NP7, Diacetin-isobornytether] | 0 | 52 | 57
2 | CC1(C)C2CCC1(C)C(OCCOC1CC3CCC1(C)C3(C)C)C2 (stereo not drawn) [NP 23, Ethylenglykol-diisobornylether] | 6 | 66 | 68
3 | S-(-)-Milchsäuremethylester-isobornylether [NP2] | 0 | 65 | 67
4 | Tripropylenglykol-isobornylether [NP 3] | 0 | 45 | 63
5 | CC1(C)C2CCC1(C)C(OCCOCCOCCO)C2 (stereo not drawn) [NP 6, Triethylenglykol-isobornylether] | 0 | 43 | 45
6 | Milchsäure-isobornylether [NP 14] | 0 | 45 | 47
7 | Dipropylenglykol-düsobornylether [NP 22] | 0 | 64 | 68
